The text below walks through data of US10676519B2, “Chimeric proteins and their use in identifying anti-deubiquitinase compounds” (The Florida State University Research Foundation, Inc., priority 2017, dated 2020).

Series [1] has as its system primary screen strain (yeast with hRpn11, UBP6 deleted). The series can be described thus: DMSO tolerance of the primary screen yeast strain, growth in microtiter plates. It is filed as cell-based, Saccharomyces cerevisiae. Conditions: primary screen strain (FIG. 4A); concentrations of DMSO up to 1%; cell density monitored over 24 hours; sextuplicate. The text has this: (§1) In baker's yeast (S. cerevisiae), deletion of the endogenous yeast Rpn11 gene is lethal, but inhibition of Rpn11 deubiquitinating activity is not. Inhibition of Rpn11 activity is lethal only when a second deubiquitinase, UBP6, is deleted (FIG. 2A). Importantly, this synthetic lethal relationship is maintained in yeast harboring hRpn11 (FIG. 3). Thus, a selective inhibitor of human Rpn11 would be lethal in the hRpn11 strain lacking UBP6 (primary screen strain), but nontoxic in a strain containing UBP6 and harboring inactivating point mutations in hRpn11 (counterscreening strain) (FIG. 2B). By measuring cell growth in the presence of potential inhibitors using any commercially available plate reader, a high throughput cell-based screen for compounds selectively inhibiting hRpn11 can be enacted.
(§2) Many high throughput screens include a library of chemical compounds having different solubility in different solvents. A common solvent used to solve this issue is dimethyl sulfoxide (“DMSO”). However, DMSO can be toxic to biological cells. Thus, it is advantageous if the biological cell is resistant to levels of DMSO which are used to dissolve compounds in a library. […]
(§3) In a fourth example, yeast strains were evaluated for tolerance of a commonly used solvent in high throughput screens. […] Cell density was monitored over 24 hours as an indicator of cell growth.

The test system of series [2] is counterscreen strain (yeast with UBP6 intact). As to the kind of experiment: DMSO tolerance of the counterscreen yeast strain, growth in microtiter plates. Conditions: counterscreen strain (FIG. 4B); concentrations of DMSO up to 1%; cell density monitored over 24 hours; sextuplicate. It is filed as cell-based, Saccharomyces cerevisiae.
Text: as §1, §2, §3
(Counterscreens check selectivity or assay interference.)

For the compound `C[S+](C)[O-]` [DMSO, dimethylsulfoxide], the “differences in growth rate, time to saturation, or saturation cell density” value in series [1] and in series [2] was “No statistical differences” each time.
